Data published in ChEMBL document CHEMBL5325474, “Di-indenopyridines as topoisomerase II-selective anticancer agents: Design, synthesis, and structure-activity relationships” (Bioorg Med Chem, 2023).
Active and inactive are the calls of the source. The calls are words filed in the database; no cut-off is given here.

How the values were obtained:
[1] = test system: Calf thymus DNA; assay: Displacement of EtBr from calf thymus DNA assessed as reduction in fluorescence intensity at 5 to 40 uM preincubated with EtBr for 30 mins followed by compound addition and measured after 30 mins by microplate reader analysis; type: nucleic-acid assay; conditions: Bos taurus, dose 5-40 µM
[2] = test system: DU-145; assay: Antiproliferative activity against human DU-145 cells incubated for 72 hrs by microplate reader analysis; type: functional, cell-based; conditions: DU-145, 72 h
[3] = test system: HCT-15; assay: Antiproliferative activity against human HCT-15 cells incubated for 72 hrs by microplate reader analysis; type: functional, cell-based; conditions: HCT-15, 72 h
[4] = test system: HeLa; assay: Antiproliferative activity against human HeLa cells incubated for 72 hrs by microplate reader analysis; type: functional, cell-based
[5] = test system: T47D; assay: Antiproliferative activity against human T47D cells incubated for 72 hrs by microplate reader analysis; type: functional, cell-based
[6] = molecular target: DNA topoisomerase 2-alpha (Homo sapiens) (UniProt P11388); assay: Inhibition of human DNA topoisomerase 2 alpha at 20 uM using supercoiled pBR322 DNA as substrate incubated for 30 mins by EtBr staining based agarose gel electrophoresis method relative to control
[7] = molecular target: DNA topoisomerase 2-alpha (Homo sapiens) (UniProt P11388); assay: Poison activity at topoisomerase 2 alpha in human HCT-15 cells at 20 uM incubated for 24 hrs by alkaline comet assay; type: cell-based
[8] = molecular target: T1, DNA topoisomerase 1 (Homo sapiens) (UniProt P11387); assay: Inhibition of human DNA topoisomerase 1 at 100 uM using supercoiled pBR322 DNA as substrate incubated for 30 mins by EtBr staining based agarose gel electrophoresis method relative to control
T1 sequence (whole entry): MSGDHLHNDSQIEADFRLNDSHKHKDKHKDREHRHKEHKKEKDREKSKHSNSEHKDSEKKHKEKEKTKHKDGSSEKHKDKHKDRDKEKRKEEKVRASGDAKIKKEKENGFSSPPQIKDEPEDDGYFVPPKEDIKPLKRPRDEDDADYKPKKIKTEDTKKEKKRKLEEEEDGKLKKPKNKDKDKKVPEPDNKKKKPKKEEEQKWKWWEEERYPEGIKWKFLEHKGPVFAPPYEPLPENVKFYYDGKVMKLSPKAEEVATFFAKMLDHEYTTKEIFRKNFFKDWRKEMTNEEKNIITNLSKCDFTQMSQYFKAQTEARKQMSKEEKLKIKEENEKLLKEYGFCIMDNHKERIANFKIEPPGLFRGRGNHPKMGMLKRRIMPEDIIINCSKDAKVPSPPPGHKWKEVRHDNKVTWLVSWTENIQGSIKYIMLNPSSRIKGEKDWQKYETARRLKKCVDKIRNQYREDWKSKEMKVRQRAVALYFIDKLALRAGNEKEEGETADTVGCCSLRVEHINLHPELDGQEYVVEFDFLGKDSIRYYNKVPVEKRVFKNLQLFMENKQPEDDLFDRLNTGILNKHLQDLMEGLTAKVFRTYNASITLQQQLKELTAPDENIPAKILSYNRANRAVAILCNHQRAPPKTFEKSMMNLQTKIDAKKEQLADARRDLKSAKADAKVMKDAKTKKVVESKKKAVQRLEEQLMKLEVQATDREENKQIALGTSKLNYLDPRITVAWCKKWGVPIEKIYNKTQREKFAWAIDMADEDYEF

[9] = molecular target: DNA topoisomerase 2-alpha (Homo sapiens) (UniProt P11388); assay: Inhibition of human DNA topoisomerase 2 alpha at 100 uM using supercoiled pBR322 DNA as substrate incubated for 30 mins by EtBr staining based agarose gel electrophoresis method relative to control
[10] = molecular target: DNA topoisomerase 2-alpha (Homo sapiens) (UniProt P11388); assay: Catalytic inhibition of human DNA topoisomerase 2 alpha expressed in baculovirus infected insect cells assessed as reduction in linear DNA formation at 200 to 500 uM using supercoiled pBR322 DNA as substrate incubated for 30 mins by agarose gel electrophoresis; conditions: dose 200-500 µM

DNA topoisomerase 2-alpha (Homo sapiens), sequence (P11388 whole entry): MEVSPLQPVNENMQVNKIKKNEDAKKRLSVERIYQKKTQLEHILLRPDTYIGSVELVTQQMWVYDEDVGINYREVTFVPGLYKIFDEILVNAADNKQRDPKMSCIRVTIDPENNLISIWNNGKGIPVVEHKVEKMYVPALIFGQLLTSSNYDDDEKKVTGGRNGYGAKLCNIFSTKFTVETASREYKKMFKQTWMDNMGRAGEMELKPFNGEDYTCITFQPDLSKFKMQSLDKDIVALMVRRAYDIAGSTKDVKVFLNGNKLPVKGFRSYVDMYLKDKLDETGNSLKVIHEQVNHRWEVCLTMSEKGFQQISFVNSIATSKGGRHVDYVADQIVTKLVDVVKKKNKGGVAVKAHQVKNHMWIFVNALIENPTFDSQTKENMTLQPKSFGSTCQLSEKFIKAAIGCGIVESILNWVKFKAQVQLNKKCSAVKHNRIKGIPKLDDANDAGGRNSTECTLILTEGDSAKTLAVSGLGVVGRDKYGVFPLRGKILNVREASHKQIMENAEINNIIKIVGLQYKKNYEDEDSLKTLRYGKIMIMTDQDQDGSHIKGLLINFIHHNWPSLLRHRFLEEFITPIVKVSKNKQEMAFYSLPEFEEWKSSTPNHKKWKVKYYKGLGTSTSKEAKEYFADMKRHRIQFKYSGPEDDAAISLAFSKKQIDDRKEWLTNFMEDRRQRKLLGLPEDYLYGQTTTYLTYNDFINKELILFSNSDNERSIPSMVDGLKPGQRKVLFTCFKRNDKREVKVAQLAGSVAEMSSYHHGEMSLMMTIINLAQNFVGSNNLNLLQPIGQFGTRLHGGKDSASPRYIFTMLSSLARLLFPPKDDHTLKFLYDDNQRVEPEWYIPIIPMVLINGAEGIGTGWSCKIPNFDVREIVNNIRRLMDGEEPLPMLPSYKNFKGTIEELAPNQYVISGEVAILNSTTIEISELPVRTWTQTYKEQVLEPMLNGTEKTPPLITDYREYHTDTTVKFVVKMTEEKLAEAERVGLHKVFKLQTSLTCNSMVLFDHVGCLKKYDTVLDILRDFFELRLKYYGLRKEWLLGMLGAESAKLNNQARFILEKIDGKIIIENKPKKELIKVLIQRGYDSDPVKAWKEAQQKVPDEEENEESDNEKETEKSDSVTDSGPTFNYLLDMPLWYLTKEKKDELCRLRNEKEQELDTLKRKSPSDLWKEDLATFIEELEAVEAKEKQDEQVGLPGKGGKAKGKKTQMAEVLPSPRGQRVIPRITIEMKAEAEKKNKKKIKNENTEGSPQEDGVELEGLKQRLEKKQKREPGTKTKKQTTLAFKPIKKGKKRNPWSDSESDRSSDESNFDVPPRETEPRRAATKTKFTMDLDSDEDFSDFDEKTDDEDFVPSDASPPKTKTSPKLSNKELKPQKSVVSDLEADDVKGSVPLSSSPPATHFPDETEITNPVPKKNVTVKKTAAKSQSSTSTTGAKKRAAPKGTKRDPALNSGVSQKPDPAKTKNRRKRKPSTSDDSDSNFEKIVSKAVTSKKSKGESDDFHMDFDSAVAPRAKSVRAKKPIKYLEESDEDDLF

SMILES	Activity [1]	IC50 [2] [µM]	IC50 [3] [µM]	IC50 [4] [µM]	IC50 [5] [µM]	inhibition [6] [%]	Activity [7]	inhibition [8] [%]	inhibition [9] [%]	inhibition [10]
Oc1cccc2c1Cc1c-2nc2c(c1-c1ccco1)Cc1c(O)cccc1-2	inactive	5.23	1.71	9.63	4.16	100	inactive	-0	100	Active
Oc1ccc(-c2c3c(nc4c2Cc2ccc(C(F)(F)F)cc2-4)-c2cc(C(F)(F)F)ccc2C3)cc1		2.57	> 50	> 50	> 50	4.5		7.1	51.4	
c1ccc(-c2c3c(nc4c2Cc2ccccc2-4)-c2ccccc2C3)cc1		> 50	> 50	> 50	> 50			-0	2.6	
Oc1cccc2c1Cc1c-2nc2c(c1-c1ccccc1)Cc1c(O)cccc1-2		3.66	1.51	0.59	1.12	1.6		-0	100	
COc1cccc2c1C(=O)c1c(O)c3c(c(O)c1C2=O)C[C@@](O)(C(=O)CO)C[C@@H]3O[C@H]1C[C@H](N)[C@H](O)[C@H](C)O1 [DOXORUBICIN]		5.53	3.53	1.68	2.53					
Oc1ccc2c(c1)-c1nc3c(c(-c4ccccc4O)c1C2)Cc1ccc(O)cc1-3		7.86	3.86	5.39	8.86	65.9			90.3	
Oc1cccc(-c2c3c(nc4c2Cc2c(O)cccc2-4)-c2cccc(O)c2C3)c1		> 50	> 50	> 50	> 50			-0	21.2	
Oc1cccc(-c2c3c(nc4c2Cc2cc(O)ccc2-4)-c2ccc(O)cc2C3)c1		> 50	> 50	> 50	> 50	40.8			56.8	
Oc1ccccc1-c1c2c(nc3c1Cc1c(O)cccc1-3)-c1cccc(O)c1C2		> 50	8.69	2.1	5.3	41.8			77.1	
Oc1ccc(-c2c3c(nc4c2Cc2cc(O)ccc2-4)-c2ccc(O)cc2C3)cc1		> 50	> 50	> 50	6.38	55.7			73.1	
Oc1ccc(-c2c3c(nc4c2Cc2ccc(O)cc2-4)-c2cc(O)ccc2C3)cc1		> 50	27.8	20.4	5.24	78			84.2	
Oc1ccc2c(c1)Cc1c-2nc2c(c1-c1cccc(Cl)c1)Cc1cc(O)ccc1-2		> 50	> 50	> 50	> 50	3.5		-0	91.4	
Oc1ccc2c(c1)-c1nc3c(c(-c4cccs4)c1C2)Cc1ccc(O)cc1-3		0.96	0.45	0.93	0.17	4.7		0.4	59.5	
Oc1ccc(-c2c3c(nc4c2Cc2cccc(O)c2-4)-c2c(O)cccc2C3)cc1		0.89	0.95	2.96	4.33	31.7			43.6	
Oc1ccc(-c2c3c(nc4c2Cc2c(O)cccc2-4)-c2cccc(O)c2C3)cc1		5.03	4.89	0.94	3.34				13.9	
Oc1cccc2c1-c1nc3c(c(-c4ccsc4)c1C2)Cc1cccc(O)c1-3		> 50	> 50	> 50	> 50			-0	13.4	
COc1cc([C@@H]2c3cc4c(cc3[C@@H](O[C@@H]3O[C@@H]5CO[C@@H](C)O[C@H]5[C@H](O)[C@H]3O)[C@H]3COC(=O)[C@H]23)OCO4)cc(OC)c1O [ETOPOSIDE]		9.87	1.97	3.38	0.97					
Oc1cccc(-c2c3c(nc4c2Cc2cccc(O)c2-4)-c2c(O)cccc2C3)c1		2.58	0.96	0.87	6.84				26	
Oc1ccc2c(c1)-c1nc3c(c(-c4ccc(C(F)(F)F)cc4)c1C2)Cc1ccc(O)cc1-3		5.84	9.06	10.5	5.8			-0	0.1	
Oc1cccc(-c2c3c(nc4c2Cc2ccc(O)cc2-4)-c2cc(O)ccc2C3)c1		> 50	> 50	> 50	> 50				22.5	
Oc1ccccc1-c1c2c(nc3c1Cc1cccc(O)c1-3)-c1c(O)cccc1C2		1.81	4.84	1.56	3.82				-0	
COc1cc(NS(C)(=O)=O)ccc1Nc1c2ccccc2nc2ccccc12	Active									
Oc1ccc(-c2c3c(nc4c2Cc2c(F)cccc2-4)-c2cccc(F)c2C3)cc1		> 50	> 50	> 50	> 50	2.5		-0	41.5	
Oc1ccc2c(c1)Cc1c-2nc2c(c1-c1ccccc1O)Cc1cc(O)ccc1-2		31.4	46.1	22.5	> 50	7.5			93.3	
Oc1cccc2c1-c1nc3c(c(-c4ccccc4OC(F)(F)F)c1C2)Cc1cccc(O)c1-3		0.87	0.93	3.23	0.05	1.6		-0	84.8	
Oc1ccc2c(c1)Cc1c-2nc2c(c1-c1cccc(F)c1)Cc1cc(O)ccc1-2		> 50	> 50	> 50	> 50	3.2		-0	96.5	
CC[C@@]1(O)C(=O)OCc2c1cc1n(c2=O)Cc2cc3ccccc3nc2-1 [CAMPTOTHECIN]		0.61								
